What was measured:
[1] = Measurement of water activity (AquaLab Series 4TE); format: physicochemical; details: for water activity at 25° C.: composition or crystal as placed in the vial; for water activity in the packaged body: packaged body with controlled relative humidity
Protocol: The water activity was measured with AquaLab Series 4TE (METER Group Inc.). A sample having a volume of about 5 ml in a sample dish was placed in AquaLab Series 4TE, and the water activity at 25° C., was measured.

[2] = Evaluation of oxidation stability: QH residual rate after storage, QH ratio by HPLC; format: physicochemical
Protocol: The weight ratio of reduced coenzyme Q10 to total coenzyme Q10 (namely, reduced coenzyme Q10/(oxidized coenzyme Q10+reduced coenzyme Q10)) is defined as “QH ratio”. The QH ratio was determined by the following HPLC analysis. For the evaluation of oxidation stability, a rate of the change in the QH ratio at the end of the evaluation from that at the beginning of the evaluation was defined as “QH residual rate”, and the QH residual rate determined by the following expression was used as a measure of oxidation stability.
QH residual rate (%)=100×QH ratio at the end of the evaluation/QH ratio at the beginning of the evaluation
Column: SYMMETRY C18 (manufactured by Waters); 250 mm (length), 4.6 mm (inner diameter)
Mobile phase: C2H5OH:CH3OH=4:3 (v:v)
Detection wavelength: 210 nm

[3] = packaged body with controlled internal relative humidity, stored at 40° C., 2 weeks
[4] = sealed aluminum laminate bag, packed at controlled relative humidity, stored at 25° C., 4 weeks

Molecule | water activity at 25° C. [1] | water activity in the packaged body [1] | QH residual rate (%) [2, 3] [%] | QH residual rate (%) [2, 4] [%] | further results
COc1c(O)c(C)c(C/C=C(\C)CC/C=C(\C)CC/C=C(\C)CC/C=C(\C)CC/C=C(\C)CC/C=C(\C)CC/C=C(\C)CC/C=C(\C)CC/C=C(\C)CCC=C(C)C)c(O)c1OC [Comparative Example 2, reduced coenzyme Q10] | 0.13 | – | – | – | QH residual rate (%) ([2]; sealed glass vial, stored at 25° C., relative humidity 60%, 4 weeks): 33.3%
COc1c(O)c(C)c(C/C=C(\C)CC/C=C(\C)CC/C=C(\C)CC/C=C(\C)CC/C=C(\C)CC/C=C(\C)CC/C=C(\C)CC/C=C(\C)CC/C=C(\C)CCC=C(C)C)c(O)c1OC [Comparative Example 1, reduced coenzyme Q10] | 0.17 | – | – | – | QH residual rate (%) ([2]; sealed glass vial, stored at 40° C., relative humidity 75%, 4 weeks): 87.5%
co-crystal composed of QH and nicotinamide [Comparative Example 3] | – | 0.48 | 82.6 | – | –
co-crystal composed of QH and nicotinamide [Example 10] | – | 0.53 | 92.2 | – | –
COc1c(O)c(C)c(C/C=C(\C)CC/C=C(\C)CC/C=C(\C)CC/C=C(\C)CC/C=C(\C)CC/C=C(\C)CC/C=C(\C)CC/C=C(\C)CC/C=C(\C)CCC=C(C)C)c(O)c1OC [Example 4, reduced coenzyme Q10] | – | 0.85 | – | 95.3 | –
COc1c(O)c(C)c(C/C=C(\C)CC/C=C(\C)CC/C=C(\C)CC/C=C(\C)CC/C=C(\C)CC/C=C(\C)CC/C=C(\C)CC/C=C(\C)CC/C=C(\C)CCC=C(C)C)c(O)c1OC [Example 3, reduced coenzyme Q10] | – | 0.50 | – | 92.3 | –
